Source: patent US12466855B2, “Labeled oxytocin and method of manufacture and use” (TONIX PHARMA LIMITED, priority 2018, dated 2025)

How the values were obtained:
[1] = PET/MRI distribution of ^13N-oxytocin following IV administration in rats; format: in vivo; conditions: female Sprague Dawley rat, 13.3 MBq in the tail vein (IV), 30 min dynamic PET, FIG. 2
Method: Anesthetised rats are scanned using a microPET scanner (nanoscan microPET/IT MRI, Mediso Ltd, Budapest, Hungary). Body temperature is maintained and circulation and respiration are monitored. First, a structural T2-weighted MRI scan is obtained for attenuation correction. Subsequently, the rat is injected through the tail vein with the ^13N-oxytocin radiotracer. […] The list-mode data of the emission scans are split into a dynamic sequence of frames. The data are reconstructed per time frame employing an iterative reconstruction. Appropriate correction factors are applied producing quantitative dynamic images (matrix size (x, y, z) 93, 93, 120. Voxel size 0.4 mm. 3D Tera-Tomo reconstruction with Monte Carlo based estimation, attenuation and scatter correction). […] Sprague-Dawley rat MRI brain atlas using PMOD software (version 3.7, PMOD Technologies Ltd, Zurich, Switzerland), a commercially available software package for biomedical image quantification, to acquire data in regions of interest. The results are expressed as dimensionless standardized uptake values (SUVs): [tissue activity concentration (MBq/g)×body weight (g)/injected dose (MBq)].
In one study, female Sprague Dawley rats were housed two per cage under a 12 h light/12 h dark cycle at an average temperature of 21° C. and humidity of 55%, with ad libitum access to food and water. […]

[2] = PET/MR distribution of ^13N-oxytocin following nasal administration in rats; format: in vivo, rat; conditions: intranasal, approx. 100 μl (1-2 MBq) per nostril in 10% ethanol/90% saline, 60 min PET scan, FIG. 3
Method: Anesthetised rats are scanned using a microPET scanner (nanoscan microPET/IT MRI, Mediso Ltd, Budapest, Hungary). Body temperature is maintained and circulation and respiration are monitored. First, a structural T2-weighted MRI scan is obtained for attenuation correction. Subsequently, the rat is injected through the tail vein with the ^13N-oxytocin radiotracer. A list-mode protocol is used with a 60-min acquisition time. The list-mode data of the emission scans are split into a dynamic sequence of frames. The data are reconstructed per time frame employing an iterative reconstruction. Appropriate correction factors are applied producing quantitative dynamic images (matrix size (x, y, z) 93, 93, 120. Voxel size 0.4 mm. 3D Tera-Tomo reconstruction with Monte Carlo based estimation, attenuation and scatter correction). A summed PET image of each 60 min scan is co-registered to an average Sprague-Dawley rat MRI brain atlas using PMOD software (version 3.7, PMOD Technologies Ltd, Zurich, Switzerland), a commercially available software package for biomedical image quantification, to acquire data in regions of interest. The results are expressed as dimensionless standardized uptake values (SUVs): [tissue activity concentration (MBq/g)×body weight (g)/injected dose (MBq)].
The distribution of ^13N-oxytocin following nasal administration in rats is tested. […]

[3] = human patients, migraine headache pain, after administration; cited from earlier work

## CC[C@H](C)[C@@H]1NC(=O)[C@H](Cc2ccc(O)cc2)NC(=O)[C@@H](N)CSSC[C@@H](C(=O)N2CCC[C@H]2C(=O)N[C@@H](CC(C)C)C(=O)NCC(N)=O)NC(=O)[C@H](CC(N)=O)NC(=O)[C@H](CCC(N)=O)NC1=O [oxytocin, Cys-Tyr-Ile-Gln-Asn-Cys-Pro-Leu-Gly]
[1]
  brain uptake / CNS penetration (PET and MR scans): lack of CNS penetration
[2]
  brain uptake / CNS penetration (PET/MR overlay): lack of CNS penetration
[3]
  initial period before onset of significant analgesia: up to 2 hours
  time to maximal analgesic effect: 4 h
